Measurements reported in patent US10624347B2, “Herbicidal composition and method for controlling weeds” (Sumitomo Chemical Company, Limited, priority 2016, dated 2020).

Columns and labels:
Echinochloa crus-galli = experiment: Foliar spray on potted weeds at two to three leaf stage in greenhouse, herbicidal effect (Example 101); assay type: in vivo, inubie (common barnyardgrass; Echinochloa crus-galli); conditions: one week after spray
Experimental: (§1) A plastic pot was filled with a commercially-available culture soil, and thereto inubie (common barnyardgrass; Echinochloa crus-galli) or akinoenokorogusa (giant foxtail; Setaria faberi) was seeded, and covered with the soil to about 0.5 cm, followed by growing the weeds in a greenhouse. When the weeds grew to two to three leaf stage, a spray liquid of the compound X, a spray liquid of pyroxasulfone, or a spray liquid of the present composition was uniformly sprayed to the whole plants so that the application rate might be a predetermined value. The spray liquid of the present composition was prepared by mixing the spray liquid of the compound X with the spray liquid of pyroxasulfone. The spray liquid of the compound X was prepared by mixing a predetermined amount of the formulation X with deionized water. The spray liquid of pyroxasulfone was prepared by dissolving pyroxasulfone with a 2 wt % solution of TWEEN® (polyoxyethylenesorbitan fatty acid ester, manufactured by MP Biomedicals) in dimethylformamide, followed by mixing with deionized water. After applying the spray liquid, the plants were placed in a greenhouse for a week. A herbicidal effect was evaluated by classifying the effect into 101 stages from 0 (no effect) to 100 (completely dead).
(§2) The expected value of the herbicidal effect in the case of mixed use was calculated from the result of the herbicidal effect in the case of single use of each of the compounds (the value of A or B) according to the formula of Colby ((expected value)=100−(100−A)×(100−B)/100).

Setaria faberi = experiment: as above; assay type: in vivo, akinoenokorogusa (giant foxtail; Setaria faberi); conditions: one week after spray
Experimental: as §1, §2

[1] = Compound X 5 g/ha alone, scale 0 (no effect) to 100 (completely dead)
[2] = Compound X 10 g/ha alone, scale 0 to 100
[3] = pyroxasulfone 10 g/ha alone, scale 0 to 100
[4] = pyroxasulfone 100 g/ha alone, scale 0 to 100

Structure (SMILES)	Herbicidal effect on Echinochloa crus-galli (observed value) (Echinochloa crus-galli; [1])	Herbicidal effect on Echinochloa crus-galli (observed value) (Echinochloa crus-galli; [2])	Herbicidal effect on Setaria faberi (observed value) (Setaria faberi; [1])	Herbicidal effect on Setaria faberi (observed value) (Setaria faberi; [2])	Herbicidal effect on Echinochloa crus-galli (observed value) (Echinochloa crus-galli; [3])	Herbicidal effect on Echinochloa crus-galli (observed value) (Echinochloa crus-galli; [4])	Herbicidal effect on Setaria faberi (observed value) (Setaria faberi; [3])	Herbicidal effect on Setaria faberi (observed value) (Setaria faberi; [4])
CCOC(=O)COc1ncccc1Oc1cc(-n2c(=O)cc(C(F)(F)F)n(C)c2=O)c(F)cc1Cl [Compound X, ethyl [3-[2-chloro-4-fluoro-5-(1-methyl-6-trifluoromethyl-2,4-dioxo-1,2,3,4-tetrahydropyrimidin-3-yl)phenoxy]-2-pyridyloxy]acetate]	20	35	30	45				
Cn1nc(C(F)(F)F)c(CS(=O)(=O)C2=NOC(C)(C)C2)c1OC(F)F [pyroxasulfone]					0	0	0	0
